Activity calls are given as the source filed them.
What was measured:
[1] = system: Streptococcus; test: GAS UMAA2166 growth inhibition – luminescence, BacTiterGlo, counter-screen for streptokinase expression inhibitor project, dose response (AID 1915); format: functional, organism-based;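 note: potency for reduction of bacterial viability or growth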
[2] = system: Vero; test: cells; format: functional, cell-based; details: Chlorocebus sabaeus
[3] = system: Streptococcus sp. 'group A'; test: Streptococcus pyogenes SK(-)GAS viability under kanamycin – luminescence, BacTiterGlo, confirmation, counter-screen for streptokinase expression inhibitor project, dose response (AID 1900); format: functional, organism-based
[4] = system: Vero; test: cells; format: functional; details: Chlorocebus sabaeus
[5] = target: T1, Short transient receptor potential channel 4 (Mus musculus, UniProt Q9QUQ5); test: calcium entry via TRPC4 opening agents – cell-based, HEK293 TRPC4/mu-opioid, Fluo-4 calcium, dose response (AID 434937); format: functional
T1 sequence (Q9QUQ5 whole entry): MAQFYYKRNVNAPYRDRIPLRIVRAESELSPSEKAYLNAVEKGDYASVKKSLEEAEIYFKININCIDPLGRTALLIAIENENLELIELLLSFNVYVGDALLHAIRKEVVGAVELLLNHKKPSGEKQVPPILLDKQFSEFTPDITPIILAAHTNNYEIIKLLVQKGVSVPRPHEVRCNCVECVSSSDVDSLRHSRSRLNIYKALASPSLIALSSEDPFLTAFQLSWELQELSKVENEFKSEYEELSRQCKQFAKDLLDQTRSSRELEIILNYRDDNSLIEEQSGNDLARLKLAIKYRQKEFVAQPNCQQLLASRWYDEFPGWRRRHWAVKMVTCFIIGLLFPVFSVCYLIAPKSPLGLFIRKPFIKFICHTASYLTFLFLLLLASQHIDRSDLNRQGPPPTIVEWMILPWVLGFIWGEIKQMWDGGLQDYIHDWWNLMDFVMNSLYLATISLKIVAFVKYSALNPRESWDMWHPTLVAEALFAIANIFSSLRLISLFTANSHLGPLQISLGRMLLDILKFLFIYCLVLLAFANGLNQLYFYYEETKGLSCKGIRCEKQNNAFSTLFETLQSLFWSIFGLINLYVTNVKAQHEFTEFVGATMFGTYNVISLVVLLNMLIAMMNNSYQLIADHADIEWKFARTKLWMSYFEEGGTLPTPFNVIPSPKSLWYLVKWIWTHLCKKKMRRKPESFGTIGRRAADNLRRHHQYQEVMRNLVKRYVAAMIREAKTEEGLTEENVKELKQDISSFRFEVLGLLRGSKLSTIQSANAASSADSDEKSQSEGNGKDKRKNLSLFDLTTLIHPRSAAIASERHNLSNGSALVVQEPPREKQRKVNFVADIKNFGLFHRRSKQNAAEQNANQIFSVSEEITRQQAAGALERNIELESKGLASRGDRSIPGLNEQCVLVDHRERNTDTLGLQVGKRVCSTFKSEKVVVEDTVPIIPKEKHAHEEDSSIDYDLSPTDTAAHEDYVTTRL

[6] = target: T2, High affinity choline transporter 1 (Homo sapiens, UniProt Q9GZV3); test: human choline transporter blockers, potency – cell-based, 5-point CRC, membrane potential dye, dose response (AID 504840); format: functional
T2 sequence (Q9GZV3 whole entry): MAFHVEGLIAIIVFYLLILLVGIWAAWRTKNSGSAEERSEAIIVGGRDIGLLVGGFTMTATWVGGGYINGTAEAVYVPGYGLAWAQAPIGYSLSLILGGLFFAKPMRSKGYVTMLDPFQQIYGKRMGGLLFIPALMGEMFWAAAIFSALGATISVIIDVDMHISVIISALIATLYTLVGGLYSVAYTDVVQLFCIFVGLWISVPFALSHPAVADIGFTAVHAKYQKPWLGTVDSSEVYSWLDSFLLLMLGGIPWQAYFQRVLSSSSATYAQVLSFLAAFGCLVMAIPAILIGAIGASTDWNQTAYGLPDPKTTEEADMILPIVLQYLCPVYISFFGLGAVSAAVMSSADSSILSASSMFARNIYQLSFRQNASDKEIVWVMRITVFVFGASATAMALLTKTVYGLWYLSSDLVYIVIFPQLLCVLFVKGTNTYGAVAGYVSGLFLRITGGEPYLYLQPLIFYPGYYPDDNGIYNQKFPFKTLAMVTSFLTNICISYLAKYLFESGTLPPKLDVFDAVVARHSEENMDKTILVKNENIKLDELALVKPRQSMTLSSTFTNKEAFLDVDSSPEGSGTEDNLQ

[7] = target: T3, Lysosomal acid glucosylceramidase (Homo sapiens, UniProt P04062); test: Dose response cell-based high throughput screening assay to identify enhancers of beta-glucosidase activity. [Related pubchem assays: 784 ]; format: functional
T3 sequence (P04062 whole entry): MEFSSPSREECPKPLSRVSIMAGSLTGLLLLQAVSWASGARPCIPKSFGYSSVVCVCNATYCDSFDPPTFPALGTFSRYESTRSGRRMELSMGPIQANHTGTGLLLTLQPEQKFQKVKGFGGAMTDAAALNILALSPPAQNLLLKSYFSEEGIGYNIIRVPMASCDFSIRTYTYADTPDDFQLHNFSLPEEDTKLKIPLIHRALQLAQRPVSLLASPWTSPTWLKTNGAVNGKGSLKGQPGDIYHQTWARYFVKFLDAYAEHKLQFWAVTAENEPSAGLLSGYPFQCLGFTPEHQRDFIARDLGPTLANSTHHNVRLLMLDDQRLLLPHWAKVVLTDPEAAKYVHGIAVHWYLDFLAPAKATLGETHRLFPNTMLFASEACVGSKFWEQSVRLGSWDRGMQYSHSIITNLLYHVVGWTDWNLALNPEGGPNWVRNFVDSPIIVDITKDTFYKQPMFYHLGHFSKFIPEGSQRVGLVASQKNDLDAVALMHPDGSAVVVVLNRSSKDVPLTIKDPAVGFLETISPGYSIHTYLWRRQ

[8] = target: T4, Microphthalmia-associated transcription factor (Homo sapiens, UniProt O75030); test: reducers of TRPM1 reporter luminescence, concentration series – cell-based, SK-MEL-5, cherry-picked, set 3, MITF inhibitor project, dose response (AID 493073); format: functional;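 note: SK-MEL-5 melanoma cells with luciferase driven by the MITF target TRPM1 promoter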
T4 sequence (O75030 whole entry): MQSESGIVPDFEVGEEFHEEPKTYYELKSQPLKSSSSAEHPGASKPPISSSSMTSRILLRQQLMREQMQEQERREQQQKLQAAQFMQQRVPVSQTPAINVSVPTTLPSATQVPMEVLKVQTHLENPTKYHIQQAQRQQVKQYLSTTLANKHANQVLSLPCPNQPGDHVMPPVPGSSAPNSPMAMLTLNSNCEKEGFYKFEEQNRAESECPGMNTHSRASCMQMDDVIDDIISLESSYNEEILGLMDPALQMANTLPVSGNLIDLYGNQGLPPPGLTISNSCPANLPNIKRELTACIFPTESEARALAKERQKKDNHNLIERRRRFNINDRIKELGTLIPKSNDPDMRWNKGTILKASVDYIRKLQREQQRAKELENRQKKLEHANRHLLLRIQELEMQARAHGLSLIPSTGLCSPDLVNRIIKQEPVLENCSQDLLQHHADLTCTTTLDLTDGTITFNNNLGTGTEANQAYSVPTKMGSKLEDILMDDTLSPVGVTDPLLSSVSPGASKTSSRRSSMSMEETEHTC

[9] = target: T5, Protein RecA (Mycobacterium tuberculosis, UniProt P9WHJ3); test: Fluorescence Cell-Free Homogeneous Dose Retest to Identify Inhibitors of RecA-Intein Splicing Activity. [Related pubchem assays (depositor defined):AID2097, AID2223, AID489010, AID492950]; format: functional
T5 sequence (P9WHJ3 whole entry): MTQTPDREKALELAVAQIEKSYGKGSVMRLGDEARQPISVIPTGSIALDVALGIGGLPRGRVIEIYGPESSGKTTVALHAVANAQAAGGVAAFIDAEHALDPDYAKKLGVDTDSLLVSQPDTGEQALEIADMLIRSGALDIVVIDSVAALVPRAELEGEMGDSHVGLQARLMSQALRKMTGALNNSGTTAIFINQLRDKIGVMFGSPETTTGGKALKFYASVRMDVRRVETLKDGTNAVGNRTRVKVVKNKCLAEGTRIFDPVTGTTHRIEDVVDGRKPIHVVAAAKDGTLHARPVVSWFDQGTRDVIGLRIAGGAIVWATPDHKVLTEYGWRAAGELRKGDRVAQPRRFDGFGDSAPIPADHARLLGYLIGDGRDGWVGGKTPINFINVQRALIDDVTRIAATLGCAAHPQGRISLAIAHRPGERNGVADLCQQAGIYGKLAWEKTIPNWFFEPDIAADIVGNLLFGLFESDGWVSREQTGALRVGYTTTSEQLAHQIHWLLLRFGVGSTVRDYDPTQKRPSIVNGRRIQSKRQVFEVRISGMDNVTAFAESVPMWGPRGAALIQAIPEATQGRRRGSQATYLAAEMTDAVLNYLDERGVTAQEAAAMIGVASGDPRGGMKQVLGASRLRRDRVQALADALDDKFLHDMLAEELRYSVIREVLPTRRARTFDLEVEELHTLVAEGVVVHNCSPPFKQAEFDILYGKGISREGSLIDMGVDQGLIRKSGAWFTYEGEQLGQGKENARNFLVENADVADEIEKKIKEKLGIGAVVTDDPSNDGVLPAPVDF

[10] = target: T6, Replicative DNA helicase DnaB (Mycobacterium tuberculosis, UniProt P9WMR3); test: DnaB intein splicing inhibitors, dose response, biochemical, cell-free fluorescence (AID 449749); format: functional
T6 sequence (P9WMR3 whole entry): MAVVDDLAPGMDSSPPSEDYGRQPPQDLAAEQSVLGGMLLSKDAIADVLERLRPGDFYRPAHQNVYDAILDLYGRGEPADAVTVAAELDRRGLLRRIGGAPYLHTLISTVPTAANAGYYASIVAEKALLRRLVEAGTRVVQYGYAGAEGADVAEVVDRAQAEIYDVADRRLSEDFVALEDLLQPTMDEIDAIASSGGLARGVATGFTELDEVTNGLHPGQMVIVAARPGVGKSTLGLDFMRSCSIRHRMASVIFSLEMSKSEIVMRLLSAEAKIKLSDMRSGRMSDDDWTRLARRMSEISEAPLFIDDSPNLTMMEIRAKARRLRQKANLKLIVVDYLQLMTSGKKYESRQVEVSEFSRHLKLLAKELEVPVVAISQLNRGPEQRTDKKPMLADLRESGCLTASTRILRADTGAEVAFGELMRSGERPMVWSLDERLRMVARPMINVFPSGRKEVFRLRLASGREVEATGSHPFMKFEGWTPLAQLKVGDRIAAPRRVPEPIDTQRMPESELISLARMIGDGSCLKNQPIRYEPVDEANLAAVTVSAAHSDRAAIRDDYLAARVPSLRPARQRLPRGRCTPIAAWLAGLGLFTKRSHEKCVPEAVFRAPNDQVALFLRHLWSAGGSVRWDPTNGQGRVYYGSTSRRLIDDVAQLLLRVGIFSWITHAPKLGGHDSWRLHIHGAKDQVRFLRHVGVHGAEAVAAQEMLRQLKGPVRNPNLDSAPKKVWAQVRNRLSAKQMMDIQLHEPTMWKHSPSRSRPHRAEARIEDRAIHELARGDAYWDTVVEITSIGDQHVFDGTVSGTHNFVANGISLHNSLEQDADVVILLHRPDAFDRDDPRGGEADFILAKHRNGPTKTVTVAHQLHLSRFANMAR

Q: For Cc1onc(-c2ccccc2)c1C(=O)NNC(=S)NC(=O)c1ccc(Cl)cc1Cl, which EC50 [1] is on record?
A: The EC50 was 1.8 µM (active).

Q: What about the IC50 [2] of the same compound?
A: Its IC50 is 22.7 µM (active).

Q: And the EC50 [3]?
A: Its EC50 is 0.441 µM (active).

Q: What about the CC50 [4] of the same compound?
A: The CC50 was > 25 µM (active).

Q: What about the EC50 [5] of the same compound?
A: The EC50 was 1.88 µM (active).

Q: With Cc1oc(-c2ccccc2)cc1C(=O)Nc1cccc(/C=C\C(=O)O)c1 as the compound, how does the IC50 [6] read?
A: Its IC50 is 11.2 µM (active).

Q: With CCOC(=O)c1cc(NC(=O)c2ccoc2C)cc(C(=O)OCC)c1 as the compound, how does the IC50 [6] read?
A: Its IC50 is 14.5 µM (active).

Q: With COc1ccc2c(c1O)[C@]13CCN(C)[C@H](C2)[C@@H]1CCC(=O)C3 as the compound, how does the EC50 [5] read?
A: Its EC50 is 0.0427 µM (active).

Q: For CCOC(=O)C1(c2ccccc2)CCN(CCC(=O)Nc2ccccc2OC)CC1, which EC50 [5] is on record?
A: Its EC50 is 1.88 µM (active).

Q: For Cc1ccc2c(c1)[C@H]1OCC[C@H]1[C@@H](c1ccncc1)N2, which EC50 [7] is on record?
A: Its EC50 is > 10 µM (not active).

Q: With CN1CCN(C(=O)CCCN2C(=O)/C(=C/c3ccccc3)SC2=S)CC1 as the compound, how does the IC50 [6] read?
A: The IC50 was 13.5 µM (active).

Q: CCN1CCN(c2nc(-c3cccnc3)nc3ccccc23)CC1 was tested. Which EC50 [7] did it give?
A: Its EC50 is > 50 µM (not active).

Q: For N=C(N)Nc1nc(C2COc3ccccc3O2)cs1 (configuration not stated), which IC50 [6] is on record?
A: Its IC50 is 12.6 µM (active).

Q: For CCn1c(CCNC(=O)c2ccc(Cl)cc2)nnc1SCC(=O)NC1CCCC1, which EC50 [7] is on record?
A: Its EC50 is > 50 µM (not active).

Q: CCN(Cc1ccc(OC)c(F)c1)C(=O)CCl was tested. Which AC50 [8] did it give?
A: Its AC50 is 3.36 µM (active).

Q: What about the EC50 [9] of the same compound?
A: The EC50 was 5.37 µM (active).

Q: And the AC50 [10]?
A: Its AC50 is 162 µM (active).
